# Values of other authors, collected in paper PMC11331742 (Military Medical Research, 2024).
# Experiments:
# preclinical models = system: preclinical models
# From the text: (§1) In addition, studies involving MC2r-independent agonists such as PT-141 could provide insight into cortisol-independent anti-inflammatory mechanisms.
# [1] = system: mouse model of acute lung injury
# From the text: as §1
# MC2r = system: MC2r; set-up: method as in PMID 25140322
compound,measurement,setting,value
CCCC(=O)C1(c2ccccc2)CCN(C(=O)[C@@H](Cc2ccc(OC)cc2)NC(=O)[C@@H](N)Cc2cncn2C)CC1 [BMS-470539],anti-inflammatory effects,preclinical models,promising anti-inflammatory effects
α-melanocyte-stimulating hormone [α-MSH],effect on inflammation,[1],reduced inflammation
same,affinity for MC2r,MC2r,minimal affinity
